Measurements as given in publication PMC8557474, “Reliability of the AR-CALUX®In Vitro Method Used to Detect Chemicals with (Anti)Androgen Activity: Results of an International Ring Trial” (Toxicological Sciences, 2021).
Converted amounts (≈) assume the structure as drawn.

How the values were obtained:
[1] = physchem
Procedure: It details the cell cultivation and seeding procedure, the preparation of the reference, control and test chemicals, the procedure for agonist testing and antagonist testing, prescreen runs, and comprehensive runs, as well as data analysis and data interpretation. This SOP also includes references to the SOPs for solubility testing and cytotoxicity testing. […] Solubility was tested both in the solvent and in media under similar circumstances as would be required during the (ant)agonist testing. The initial concentration to be tested was prescribed at 50 mg/ml. Starting from the highest soluble concentration, cytotoxicity was determined with an LDH assay. Visual checking of cytotoxicity in all wells of the plate was however also required for each run.
This included an investigation by heating, centrifugation, microscopy, and visual checking. […] For the purpose of the validation study, the labs were requested to start from 50 mg/ml as the maximal stock concentration to be tested.

[2] = biological target: T1, human androgen receptor (hAR) (Homo sapiens, UniProt P10275); experiment: cell-based; type: cell-based
T1 construct: host or cells: U2-OS human osteosarcoma cells (ATCC HTB 96), stably transfected (AR-CALUX cell line)
T1 sequence (P10275 1-920): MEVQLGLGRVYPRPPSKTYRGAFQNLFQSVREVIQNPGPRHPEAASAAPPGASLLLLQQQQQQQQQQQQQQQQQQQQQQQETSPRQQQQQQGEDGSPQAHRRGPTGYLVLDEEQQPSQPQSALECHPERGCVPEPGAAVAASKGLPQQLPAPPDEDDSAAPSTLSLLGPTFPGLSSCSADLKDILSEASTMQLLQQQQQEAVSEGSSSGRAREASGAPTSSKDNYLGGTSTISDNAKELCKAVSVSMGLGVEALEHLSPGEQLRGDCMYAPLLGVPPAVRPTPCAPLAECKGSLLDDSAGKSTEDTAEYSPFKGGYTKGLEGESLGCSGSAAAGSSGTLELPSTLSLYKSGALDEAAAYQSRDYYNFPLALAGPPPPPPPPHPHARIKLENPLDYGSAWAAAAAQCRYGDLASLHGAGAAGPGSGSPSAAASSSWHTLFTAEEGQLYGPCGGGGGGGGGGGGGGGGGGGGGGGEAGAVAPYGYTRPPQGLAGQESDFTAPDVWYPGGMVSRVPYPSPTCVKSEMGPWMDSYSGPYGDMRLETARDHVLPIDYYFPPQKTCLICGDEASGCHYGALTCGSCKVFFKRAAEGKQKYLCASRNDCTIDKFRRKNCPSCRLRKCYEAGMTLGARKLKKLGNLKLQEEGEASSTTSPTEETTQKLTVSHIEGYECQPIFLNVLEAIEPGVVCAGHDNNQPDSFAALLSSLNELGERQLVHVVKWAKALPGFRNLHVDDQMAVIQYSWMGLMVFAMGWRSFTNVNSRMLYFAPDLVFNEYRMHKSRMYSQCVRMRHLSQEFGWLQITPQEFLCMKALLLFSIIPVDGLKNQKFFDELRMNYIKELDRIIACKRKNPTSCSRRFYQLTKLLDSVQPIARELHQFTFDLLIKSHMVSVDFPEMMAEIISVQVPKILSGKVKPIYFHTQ
Excerpt: (§1) The AR-CALUX® cell line was created by BioDetection Systems (BDS). It can be purchased from BDS with a license (https://www.biodetectionsystems.com). The human osteosarcoma cell line U2-OS (ATCC HTB 96) was transfected with 2 constructs: pSG5-neo-hAR carrying the cDNA of a human androgen receptor (hAR) under a constitutive promoter, and, a luciferase reporter gene which is preceded by a triple tandem of AREs in front of a TATA box (3x ARE Luc). […] The AR-CALUX® cell line was obtained from the test method developer BDS. EURL ECVAM prepared a master cell bank and a large working cell bank which were tested for the absence of mycoplasma, bacteria, fungi, and yeast and for the absence of Hepatitis B and C and HIV. In addition, to verifying the authenticity of the cell line, Short Tandem Repeat (STR) profiling was carried out to confirm the test system to be U2-OS cells. […] The laboratories were requested, at the end of each part of the study (Parts 1, 2, and 3), to perform a mycoplasma test of their choice. Additional aliquots were sent to EURL ECVAM for a reanalysis of authenticity.
(§2) Subsequently, the test chemical was assessed with a prescreen run (dilution steps of 10) and simultaneously with the quantitative cytotoxicity test to determine (1) cytotoxic concentrations, (2) the response, and (3) the appropriate dose range to be tested. […] The cytotoxicity test was performed once more. Test chemicals were diluted in media and consisted of 8 serial dilutions. Each dilution was tested in triplicate.
(§3) Each experiment (run) was comprised of a maximum of 6 plates. The first plate would contain 8 serial dilutions of the reference chemical DHT (for agonism) or Flutamide (for antagonism), while the positive and negative controls were added at fixed concentrations. In addition, a solvent control was added (medium without the chemical but with DMSO 0.1%).
A. Positive when the relative induction (Yc) of the test item is ≥ 10% (REF RPC10) for two or more consecutive concentrations.

[3] = biological target: T1, human androgen receptor (hAR); experiment: AR-CALUX antagonist assay (medium spiked with DHT at EC50); type: cell-based
Excerpt: as §1, §2, §3
For the antagonist assay, the medium was supplemented with DHT at EC50 concentration (standard assay). […] Each antagonist assay was accompanied by a specificity control test carried out on the same plate.
A. Positive (competitive antagonist) when the relative induction (Yc) of the test item is ≤ 80% (REF RPC80) for two or more consecutive concentrations and […]

[4] = aqueous buffer, kinetic from dmso stock, Solubility in medium, Lab 1, assay medium, Lab 1
[5] = aqueous buffer, kinetic from dmso stock, Solubility in medium, Lab 2, assay medium, Lab 2
[6] = aqueous buffer, kinetic from dmso stock, Solubility in medium, Lab 3, assay medium, Lab 3
[7] = aqueous buffer, kinetic from dmso stock, Solubility in medium, Lab 4, assay medium, Lab 4
[8] = organic solvent or mixture, thermodynamic from solid, Solubility in DMSO, Lab 1, DMSO, Lab 1, highest tested 50 mg/ml
[9] = organic solvent or mixture, thermodynamic from solid, Solubility in DMSO, Lab 2, DMSO, Lab 2, highest tested 50 mg/ml
[10] = organic solvent or mixture, thermodynamic from solid, Solubility in DMSO, Lab 3, DMSO, Lab 3, highest tested 50 mg/ml
[11] = organic solvent or mixture, thermodynamic from solid, Solubility in DMSO, Lab 4, DMSO, Lab 4, highest tested 50 mg/ml
[12] = DMSO, organic solvent or mixture, thermodynamic from solid, Solubility in DMSO, Lab 1, DMSO, Lab 1, highest tested 50 mg/ml
[13] = DMSO, organic solvent or mixture, thermodynamic from solid, Solubility in DMSO, Lab 2, DMSO, Lab 2, highest tested 50 mg/ml
[14] = DMSO, organic solvent or mixture, thermodynamic from solid, Solubility in DMSO, Lab 3, DMSO, Lab 3, highest tested 50 mg/ml
[15] = DMSO, organic solvent or mixture, thermodynamic from solid, Solubility in DMSO, Lab 4, DMSO, Lab 4, highest tested 50 mg/ml
[16] = assay medium, aqueous buffer, kinetic from dmso stock, Solubility in medium, Lab 1, assay medium, Lab 1
[17] = assay medium, aqueous buffer, kinetic from dmso stock, Solubility in medium, Lab 2, assay medium, Lab 2
[18] = assay medium, aqueous buffer, kinetic from dmso stock, Solubility in medium, Lab 3, assay medium, Lab 3
[19] = assay medium, aqueous buffer, kinetic from dmso stock, Solubility in medium, Lab 4, assay medium, Lab 4

SMILES: C[C@]1(O)CC[C@H]2[C@@H]3CCC4=CC(=O)CC[C@]4(C)[C@@]3(F)[C@@H](O)C[C@@]21C [Fluoxymesterone]
- solubility [1, 4]: 5 µg/mL (≈ 14.9 µM)
- solubility [1, 5]: 5 µg/mL (≈ 14.9 µM)
- solubility [1, 6]: 5 µg/mL (≈ 14.9 µM)
- solubility [1, 7]: 15 µg/mL (≈ 44.6 µM)
- solubility [1, 8]: > 50000 µg/mL
- solubility [1, 9]: 5000 µg/mL (≈ 14900 µM)
- solubility [1, 10]: > 50000 µg/mL
- solubility [1, 11]: > 50000 µg/mL

SMILES: CCN(CC)C(=S)SSC(=S)N(CC)CC [Disulfiram]
- solubility [1, 4]: 5 µg/mL (≈ 16.9 µM)
- solubility [1, 5]: 15 µg/mL (≈ 50.6 µM)
- solubility [1, 6]: 15 µg/mL (≈ 50.6 µM)
- solubility [1, 7]: 15 µg/mL (≈ 50.6 µM)
- solubility [1, 8]: > 50000 µg/mL
- solubility [1, 9]: > 50000 µg/mL
- solubility [1, 10]: > 50000 µg/mL
- solubility [1, 11]: > 50000 µg/mL
- Agonist classification per run, Lab 1 ([2]; Lab 1, 3 runs): N N N
- Agonist classification per run, Lab 2 ([2]; Lab 2, 3 runs): N N N
- Agonist classification per run, Lab 3 ([2]; Lab 3, 3 runs): N N N
- Agonist classification per run, Lab 4 ([2]; Lab 4, 3 runs): N N N
- Antagonist classification per run, Lab 1 ([3]; Lab 1, 3 runs): N N N
- Antagonist classification per run, Lab 2 ([3]; Lab 2, 3 runs): N N N
- Antagonist classification per run, Lab 3 ([3]; Lab 3, 3 runs): N N N
- Antagonist classification per run, Lab 4 ([3]; Lab 4, 3 runs): N N N

SMILES: CC(=O)O[C@]1(C(C)=O)CC[C@H]2[C@@H]3C[C@H](C)C4=CC(=O)CC[C@]4(C)[C@H]3CC[C@@]21C [Medroxyprogesterone acetate]
- solubility [1, 12]: 1500 µg/mL
- solubility [1, 13]: 15000 µg/mL
- solubility [1, 14]: 15000 µg/mL
- solubility [1, 15]: 5000 µg/mL
- solubility [1, 16]: 1.5 µg/mL
- solubility [1, 17]: 5 µg/mL
- solubility [1, 18]: 15 µg/mL
- solubility [1, 19]: 5 µg/mL

SMILES: C[C@]12CCC(=O)C[C@@H]1CC[C@@H]1[C@@H]2CC[C@@]2(C)[C@H]1CC[C@]2(C)O [Methyldihydrotestosterone]
- Solubility in DMSO, Lab 1 ([1]; DMSO, Lab 1, highest tested 50 mg/ml): 5000 µg/mL (≈ 16400 µM)
- Solubility in DMSO, Lab 2 ([1]; DMSO, Lab 2, highest tested 50 mg/ml): 5000 µg/mL (≈ 16400 µM)
- Solubility in DMSO, Lab 3 ([1]; DMSO, Lab 3, highest tested 50 mg/ml): 15000 µg/mL (≈ 49300 µM)
- Solubility in DMSO, Lab 4 ([1]; DMSO, Lab 4, highest tested 50 mg/ml): 15000 µg/mL (≈ 49300 µM)
- Solubility in medium, Lab 1 ([1]; assay medium, Lab 1): 5 µg/mL (≈ 16.4 µM)
- Solubility in medium, Lab 2 ([1]; assay medium, Lab 2): 5 µg/mL (≈ 16.4 µM)
- Solubility in medium, Lab 3 ([1]; assay medium, Lab 3): 5 µg/mL (≈ 16.4 µM)
- Solubility in medium, Lab 4 ([1]; assay medium, Lab 4): 5 µg/mL (≈ 16.4 µM)

SMILES: CC(=O)S[C@@H]1CC2=CC(=O)CC[C@]2(C)[C@H]2CC[C@@]3(C)[C@@H](CC[C@@]34CCC(=O)O4)[C@H]12 [Spironolactone]
- solubility [1, 12]: 15000 µg/mL (≈ 36000 µM)
- solubility [1, 13]: > 50000 µg/mL
- solubility [1, 14]: > 50000 µg/mL
- solubility [1, 15]: > 50000 µg/mL
- solubility [1, 16]: 15 µg/mL (≈ 36 µM)
- solubility [1, 17]: > 50 µg/mL
- solubility [1, 18]: > 50 µg/mL
- solubility [1, 19]: > 50 µg/mL
